From patent US7439253B2, “Heterocyclic compounds, their preparation and their use as medicaments, in particular as antibacterials and beta-lactamase inhibitors” (Novexel, priority 2002, dated 2008)
Where a name gives a salt, the structure may show the parent alone. Read-outs that look alike come from different tables or passages of the source.

Experiments:
β-lactamase TEM1 = target: T1, β-lactamase TEM1 (Escherichia coli, UniProt P62593); test: β-lactamase inhibiting activity (Nitrocefin hydrolysis); format: biochemical, E. coli 250HT21
T1 construct: The β-lactamases are isolated from bacterial strains resistant to penicillins and to cephalosporins; endogenous in cells; host or cells: E. coli 250HT21 (soluble fraction of French-press lysate, 100 000 G supernatant)
Experimental: (§1) A. Preparation of the β-lactamases Tem˜1 and P99
(§2) The β-lactamases are isolated from bacterial strains resistant to penicillins and to cephalosporins (Tem1 and P99 are produced by E. coli 250HT21 and E. Cloacae 293HT6, respectively).
(§3) The bacteria are cultured in heart-brain broth at 37 g/l (DIFCO), at 37° C. They are harvested at the end of the exponential phase, cooled and centrifuged. The bacterial pellets are taken up in 50 mM sodium phosphate buffer pH 7.0 and again centrifuged. The bacteria are taken up in two volumes of this same buffer and lyzed by means of a French-Press kept at 4° C. After centrifugation for 1 h at 100 000 G, at 4° C., the supernatants containing the soluble fraction of the bacterial extracts are recovered and frozen at −80° C.
(§4) B. Determination of the β-lactamase Activity
(§5) The method uses, as substrate, Nitrocefin (OXOID), a chromogenic cephalosporin, whose product of hydrolysis by Beta-lactamases is red and absorbs at 485 nm. The β-lactamase activity is kinetically determined by measuring the variation in absorbance at 485 nm resulting from the hydrolysis of the substrate on a plate spectrophotometer (Spectra Max Plus from Molecular Devices). The experiments are performed at 37° C. The quantity of enzyme was normalized and the measurements are performed at the initial speed.
(§6) C. Determination of the β-lactamase Inhibiting Activity
(§7) Two measurements are carried out, without preincubation and with preincubation of the enzyme and of the inhibitor (5 min), in order to test the irreversibility of the reaction. The products are tested at 6 or 8 concentrations in duplicate. The reaction mixture contains 100 μM of Nitrocefin and 50 mM sodium phosphate buffer pH 7.0. D. Calculations of the IC50 Values
(§8) The rates of hydrolysis are measured with and without inhibitor. The concentration of inhibitor which inhibits by 50% the reaction of hydrolysis of Nitrocefin by the enzyme (IC50) is determined. The data processing is carried out with the aid of the GraFit software (Erathycus Software).

β-lactamase P99 = target: T2, β-lactamase P99 (Enterobacter cloacae, UniProt P05364); test: biochemical; format: biochemical
T2 construct: The β-lactamases are isolated from bacterial strains resistant to penicillins and to cephalosporins; endogenous in cells; host or cells: E. cloacae 293HT6 (soluble fraction of French-press lysate, 100 000 G supernatant)
Experimental: as §1, §2, §3, §4, §5, §6, §7, §8

[1] = 100 μM Nitrocefin, 50 mM sodium phosphate buffer pH 7.0, 37° C., read-out: IC50 nM/TEM1
[2] = 100 μM Nitrocefin, 50 mM sodium phosphate buffer pH 7.0, 37° C.

T1 sequence (P62593 24-286 limits assumed): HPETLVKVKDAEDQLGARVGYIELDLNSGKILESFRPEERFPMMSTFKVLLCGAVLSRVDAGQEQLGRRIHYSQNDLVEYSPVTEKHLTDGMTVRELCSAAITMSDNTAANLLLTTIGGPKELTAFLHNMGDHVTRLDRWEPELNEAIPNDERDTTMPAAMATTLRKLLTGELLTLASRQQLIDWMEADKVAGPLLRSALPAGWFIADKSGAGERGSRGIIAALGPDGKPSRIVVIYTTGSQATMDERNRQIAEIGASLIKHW
T2 sequence (P05364 21-381): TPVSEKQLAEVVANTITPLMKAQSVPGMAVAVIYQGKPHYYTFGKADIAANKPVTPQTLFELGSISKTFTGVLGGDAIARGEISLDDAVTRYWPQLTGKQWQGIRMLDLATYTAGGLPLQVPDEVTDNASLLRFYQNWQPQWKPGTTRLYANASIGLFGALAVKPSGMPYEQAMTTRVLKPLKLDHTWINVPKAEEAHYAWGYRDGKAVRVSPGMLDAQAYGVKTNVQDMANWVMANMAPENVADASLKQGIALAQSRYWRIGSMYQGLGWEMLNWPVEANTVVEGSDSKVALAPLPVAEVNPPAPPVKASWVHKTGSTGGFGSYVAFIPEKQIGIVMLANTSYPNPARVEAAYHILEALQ

Compound | IC50 (β-lactamase TEM1; [1]) | IC50 (β-lactamase P99; [2]) | IC50 (β-lactamase TEM1) | IC50 (β-lactamase P99; pH 7)
NC(=O)[C@@H]1c2c(cnn2-c2ccccc2)[C@H]2CN1C(=O)N2OS(=O)(=O)O (relative stereo) [Example 47, Sodium Salt of trans-4,5,6,8-tetrahydro-6-oxo-1-phenyl-5-(sulfoxy)-1H-4,7-methanopyrazolo[3,4-e][1,3]diazepine-8-carboxamide] | 12 nM | 3 nM |  | 
CCOC(=O)[C@H]1c2cccc(OC(=O)Nc3ccccc3)c2[C@@H]2CN1C(=O)N2OS(=O)(=O)O (relative stereo) [Example 28, Sodium Salt of Ethyl Trans-1,2,3,5-tetrahydro-3-oxo-9-[[(phenylamino)carbonyl]oxy]-2-(sulfoxy)-1,4-methano-4H-2,4-benzodiazepine-5-carboxylate] | 33 nM | 25 nM |  | 
NC(=O)[C@@H]1c2sc(-c3ccccc3C(F)(F)F)cc2[C@H]2CN1C(=O)N2OS(=O)(=O)O (relative stereo) [Example 25, Sodium Salt of Trans-4,5,6,8-tetrahydro-6-oxo-5-(sulfoxy)-2-[2-(trifluoromethyl)phenyl]-4,7-methano-7H-thieno[2,3-e][1,3]diazepine-8-carboxamide] | 2 nM | 6 nM |  | 
COC(=O)[C@@H]1c2sc(C(N)=O)cc2[C@H]2CN1C(=O)N2OS(=O)(=O)O (relative stereo) [Example 21, Sodium Salt of Methyl Trans-2-(aminocarbonyl)-4,5,6,8-tetrahydro-6-oxo-5-(sulfoxy)-4,7-methano-7H-thieno[2,3-e][1,3]diazepine-8-carboxylate] | 7 nM | 69 nM |  | 
CCOC(=O)Cn1cc2c(n1)[C@@H](C(=O)OC)N1C[C@H]2N(OS(=O)(=O)O)C1=O (relative stereo) [Example 5, Triethylammonium Salt of Ethyl Trans-5,6-dihydro-8-(methoxycarbonyl)-6-oxo-5-(sulfoxy)-4H-4,7-methanopyrazolo[3,4-e][1,3]diazepine-2(8H)-acetate] | 13 nM | 17 nM |  | 
CCOC(=O)Cn1ncc2c1C(C(=O)OC)N1CC2N(OS(=O)(=O)O)C1=O (stereo not drawn) [Example 4, Triethylammonium Salt of Ethyl Trans-4,5,6,8-tetrahydro-8-(methoxycarbonyl)-6-oxo-5-(sulfoxy)-1H-4,7-methanopyrazolo[3,4-e][1,3]diazepine-1-acetate] |  | 7 nM | 34 nM | 
CCOC(=O)[C@H]1c2ccc(OS(=O)(=O)C(F)(F)F)cc2[C@@H]2CN1C(=O)N2OS(=O)(=O)O (relative stereo) [Example 40, Sodium Salt of ethyl trans-1,2,3,5-tetrahydro-3-oxo-2-(sulfoxy)-8-[[(triluoromethyl)sulfonyl]oxy]-1,4-methano-4H-2,4-benzodiazepine-5-carboxylate] | 11 nM |  |  | 12 nM
COC(=O)C1c2nn(C(N)=O)cc2C2CN1C(=O)N2OS(=O)(=O)O (stereo not drawn) [Example 11, Pyridinium Salt of Methyl Trans-2-(aminocarbonyl)-2,5,6,8-tetrahydro-6-oxo-5-(sulfoxy)-4H-4,7-methanopyrazolo[3,4-e][1,3]diazepine-8-carboxylate] |  | 39 nM | 11 nM | 
COC(=O)C1c2c(cnn2CCc2ccccc2)C2CN1C(=O)N2OS(=O)(=O)O (stereo not drawn) [Example 2, Triethylammonium Salt of Methyl trans-4,5,6,8-tetrahydro-6-oxo-1-(phenylethyl)-5-(sulfoxy)-1H-4,7-methanopyrazolo[3,4-e][1,3]diazepine-8-carboxylate] |  | 20 nM | 16 nM | 
NC(=O)C1c2nn(C(=O)Nc3ccccc3)cc2C2CN1C(=O)N2OS(=O)(=O)O (centres unmarked) [Example 7, Triethylammonium Salt of 5,6-dihydro-6-oxo-N-2-phenyl-5-(sulfoxy)-4H-4,7-methanopyrazolo[3,4-e][1,3]diazepine-2,8(8H)-dicarboxamide] | 1 nM | 14 nM |  | 
